This is an account of results in patent US20230081720A1, “MCL-1 INHIBITOR ANTIBODY-DRUG CONJUGATES AND METHODS OF USE” (NOVARTIS AG, priority 2019, published 2023).

Broadly, the IC50 is the midpoint of a concentration-inhibition curve. Usually pIC50 stands for the negative decadic logarithm of the IC50, by convention in mol/L.

The target of one assay is Mcl-1 protein (Homo sapiens, UniProt Q07820). The experiment in a line: Inhibition of Mcl-1 by fluorescence polarization (FP). Type of assay: binding. The following applies: fluorescein-labelled ligand 1 nM, Mcl-1 protein 5 nM.
Sequence of Mcl-1 protein (Q07820 whole entry): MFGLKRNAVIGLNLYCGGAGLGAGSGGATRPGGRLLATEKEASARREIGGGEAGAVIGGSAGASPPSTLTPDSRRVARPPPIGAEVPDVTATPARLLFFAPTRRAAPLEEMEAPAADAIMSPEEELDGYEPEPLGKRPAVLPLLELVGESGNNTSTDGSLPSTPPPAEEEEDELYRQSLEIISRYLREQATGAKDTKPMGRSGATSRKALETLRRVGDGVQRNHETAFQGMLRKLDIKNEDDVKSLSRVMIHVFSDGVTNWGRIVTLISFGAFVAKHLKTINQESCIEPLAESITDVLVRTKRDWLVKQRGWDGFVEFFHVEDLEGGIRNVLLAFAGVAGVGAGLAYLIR
The subject of assay [1] is NCI-H929 multiple myeloma cell line. The experiment in a line: In vitro cytotoxicity, Microculture Tetrazolium Assay (MTT). Type of assay: cell-based. The note with it: NCI-H929 cells, 48 hours.
Method: Cytotoxicity studies were carried out on the NCI-H929 multiple myeloma cell line. The cells were distributed onto microplates and exposed to the test compounds for 48 hours.
The next assay relates to NOMO-1. Type of assay: cell-based. As for the experimental part: (§1) Cell lines were cultured in media that is optimal for their growth at 5% CO2, 37° C. in a tissue culture incubator. Prior to seeding for the proliferation assay, the cells were split at least 2 days before the assay to ensure optimal growth density. […] Cell viability and cell density were determined using a cell counter (Vi-Cell XR Cell Viability Analyzer, Beckman Coulter). […] Cells were seeded at a density of 1,000 cells per well in 45 μL of standard growth media. Plates were incubated at 5% CO2, 37° C. overnight in a tissue culture incubator. […] Each drug concentration was tested in quadruplets. […] Plates were incubated at room temperature for 10 minutes to stabilize luminescent signals prior to reading using a luminescence reader (EnVision Multilabel Plate Reader, PerkinElmer). To evaluate the effect of the drug treatments, luminescent counts from wells containing untreated cells (100% viability) were used to normalize treated samples.

The test system of another assay is MONO-MAC-1. Type of assay: cell-based. The following applies: CD74 ADC with the named linker-payload, 5 days. As for the experimental part:
as §1

For another assay, the system named is EOL-1. Type of assay: cell-based. As for the experimental part: as §1
[2] abbreviates: CD74 ADC with the named linker-payload, 5 days.

pIC50: −log10 of the molar value. Read-outs that look alike come from different tables or passages of the source.

Method for Mcl-1 protein: The relative binding potency of each compound was determined via Fluorescence Polarization (FP).
An 11-point serial dilution of each compound was prepared in DMSO and 2 PI transferred into flat bottomed, low binding, 384-well plate (final DMSO concentration 5%). 38 μl of buffer (10 mM 4-(2-hydroxyethyl)-1-piperazineethanesulfonic acid [HEPES], 150 mM NaCl, 0.05% Tween 20, pH 7.4), containing the fluorescein-labelled ligand (final concentration 1 nM) and Mcl-1 protein (final concentration 5 nM) was then added.

With `Cc1c(-c2c(-c3ccc(F)cc3)sc3ncnc(O[C@H](Cc4ccccc4OCc4ccnn4CC(F)(F)F)C(=O)O)c23)ccc(OCCN2CCN(C)CC2)c1Cl` (atropisomer, axis not shown) [C12, (2R)-2-{[(5Sa)-5-{3-chloro-2-methyl-4-[2-(4-methylpiperazin-1-yl)ethoxy]phenyl}-6-(4-fluorophenyl)thieno[2,3-d]pyrimidin-4-yl]oxy}-3-(2-{[1-(2,2,2-trifluoroethyl)-1H-pyrazol-5-yl]methoxy}phenyl)propanoic Acid], half-maximal inhibition at Mcl-1 protein (IC50) required 5.9 nM.

Consider `COc1ccccc1-c1nccc(COc2ccccc2C[C@@H](Oc2ncnc3sc(-c4ccc(F)c(O)c4)c(-c4ccc(OCCN5CC[N+](C)(CCCS(=O)(=O)[O-])CC5)c(Cl)c4C)c23)C(=O)O)n1` [C2, (2R)-2-[(5Sa)-5-[3-chloro-2-methyl-4-[2-[4-methyl-4-(3-sulfopropyl)piperazin-4-ium-1-yl]ethoxy]phenyl]-6-(4-fluoro-3-hydroxy-phenyl)thieno[2,3-d]pyrimidin-4-yl]oxy-3-[2-[[2-(2-methoxyphenyl)pyrimidin-4-yl]methoxy]phenyl]propanoic acid], for which the IC50 in assay [1] (Homo sapiens) is 8510 nM; against Mcl-1 protein, 2.6 nM.

In the case of `COc1ccccc1-c1nccc(COc2ccccc2C[C@@H](Oc2ncnc3sc(-c4ccc(F)cc4)c(-c4ccc(OCCN5CCNCC5)c(Cl)c4C)c23)C(=O)O)n1` [C3, (2R)-2-[(5Sa)-5-[3-chloro-2-methyl-4-(2-piperazin-1-ylethoxy)phenyl]-6-(4-fluorophenyl)thieno[2,3-d]pyrimidin-4-yl]oxy-3-[2-[[2-(2-methoxyphenyl)pyrimidin-4-yl]methoxy]phenyl]propanoic acid], the IC50 in assay [1] (Homo sapiens) stood at 42 nM; on Mcl-1 protein it was 0.948 nM.

Take `Cc1c(-c2c(-c3ccc(F)cc3)sc3ncnc(OC(Cc4ccccc4OCc4ccnc(-c5ccc(CP(=O)(O)O)cc5)n4)C(=O)O)c23)ccc(OCCN2CCNCC2)c1Cl` [C4, (2R)-2-[(5Sa)-5-[3-chloro-2-methyl-4-(2-piperazin-1-ylethoxy)phenyl]-6-(4-fluorophenyl)thieno[2,3-d]pyrimidin-4-yl]oxy-3-[2-[[2-[4-(phosphonomethyl)phenyl]pyrimidin-4-yl]methoxy]phenyl]propanoic acid]: the IC50 in assay [1] (Homo sapiens) was 3210 nM; at Mcl-1 protein, 2.6 nM.

For `Cc1c(-c2c(-c3ccc(F)cc3)sc3ncnc(O[C@H](Cc4ccccc4OCc4ccnc(-c5ccccc5CO)n4)C(=O)O)c23)ccc(OCCN2CCN(C)CC2)c1Cl` [C6, (2R)-2-{[(5Sa)-5-{3-chloro-2-methyl-4-[2-(4-methylpiperazin-1-yl)ethoxy]phenyl}-6-(4-fluorophenyl)thieno[2,3-d]pyrimidin-4-yl]oxy}-3-[2-({2-[2-(hydroxymethyl)phenyl]pyrimidin-4-yl}methoxy)phenyl]propanoic acid], the IC50 against Mcl-1 protein was 1.18 nM.

On to `CC#Cc1sc2ncnc(O[C@H](Cc3ccccc3OCc3ccnc(-c4ccccc4OC)n3)C(=O)O)c2c1-c1ccc(OCCN2CCN(C)CC2)c(Cl)c1CC` [C7, (2R)-2-[(5Sa)-5-[3-chloro-2-ethyl-4-[2-(4-methylpiperazin-1-yl)ethoxy]phenyl]-6-prop-1-ynyl-thieno[2,3-d]pyrimidin-4-yl]oxy-3-[2-[[2-(2-methoxyphenyl)pyrimidin-4-yl]methoxy]phenyl]propanoic Acid], for which the figures for the IC50 (in assay [1] (Homo sapiens); on Mcl-1 protein) were 1.88 nM and 2.6 nM, respectively.

`Cc1c(-c2c(-c3ccc(F)cc3)sc3ncnc(O[C@H](Cc4ccccc4OCc4ccnc(-c5cccc(OS(=O)(=O)O)c5)n4)C(=O)O)c23)ccc(OCCN2CCN(C)CC2)c1Cl` [C8, (2R)-2-[(5Sa)-5-[3-chloro-2-methyl-4-[2-(4-methylpiperazin-1-yl)ethoxy]phenyl]-6-(4-fluorophenyl)thieno[2,3-d]pyrimidin-4-yl]oxy-3-[2-[[2-(3-sulfooxyphenyl)pyrimidin-4-yl]methoxy]phenyl]propanoic acid]: the values for the IC50 (in assay [1] (Homo sapiens); against Mcl-1 protein) were 574 nM and 3 nM, respectively.

With `Cc1c(-c2c(-c3ccc(F)cc3)sc3ncnc(O[C@H](Cc4ccccc4OCc4ccnc(-c5cccc(S(=O)(=O)O)c5)n4)C(=O)O)c23)ccc(OCCN2CCN(C)CC2)c1Cl` [C9, (2R)-2-{[(5Sa)-5-{3-chloro-2-methyl-4-[2-(4-methylpiperazin-1-yl)ethoxy]phenyl}-6-(4-fluorophenyl)thieno[2,3-d]pyrimidin-4-yl]oxy}-3-(2-{[2-(3-sulfophenyl)pyrimidin-4-yl]methoxy}phenyl)propanoic acid], the IC50 in assay [1] (Homo sapiens) was determined as 2270 nM; at Mcl-1 protein, 2.5 nM.

As for `COc1ccccc1-c1nccc(COc2ccccc2C[C@@H](Oc2ncnc3sc(-c4ccc(F)c(OCC(F)(F)F)c4)c(-c4ccc(OCCN5CCN(C)CC5)c(Cl)c4C)c23)C(=O)O)n1` [C10, (2R)-2-[(5Sa)-5-[3-chloro-2-methyl-4-[2-(4-methylpiperazin-1-yl)ethoxy]phenyl]-6-[4-fluoro-3-(2,2,2-trifluoroethoxy)phenyl]thieno[2,3-d]pyrimidin-4-yl]oxy-3-[2-[[2-(2-methoxyphenyl)pyrimidin-4-yl]methoxy]phenyl]propanoic Acid], the IC50 in assay [1] (Homo sapiens) was 13.5 nM; on Mcl-1 protein, 3.4 nM.

With `COc1ccccc1-c1nccc(COc2ccccc2C[C@@H](Oc2ncnc3sc(-c4cc(N)c(F)c(F)c4)c(-c4ccc(OCCN5CCN(C)CC5)c(Cl)c4C)c23)C(=O)O)n1` [C13, (2R)-2-{[(5Sa)-6-(3-amino-4,5-difluorophenyl)-5-{3-chloro-2-methyl-4-[2-(4-methylpiperazin-1-yl)ethoxy]phenyl}thieno[2,3-d]pyrimidin-4-yl]oxy}-3-(2-{[2-(2-methoxyphenyl)pyrimidin-4-yl]methoxy}phenyl)propanoic acid], the IC50 in assay [1] (Homo sapiens) turned out to be 3.76 nM; against Mcl-1 protein, 2.2 nM.

On to `COc1c(O)cccc1-c1nccc(COc2ccccc2C[C@@H](Oc2ncnc3sc(-c4ccc(F)cc4)c(-c4ccc(OCCN5CCN(C)CC5)c(Cl)c4C)c23)C(=O)O)n1` [C14, (2R)-2-{[(5Sa)-5-{3-chloro-2-methyl-4-[2-(4-methylpiperazin-1-yl)ethoxy]phenyl}-6-(4-fluorophenyl)thieno[2,3-d]pyrimidin-4-yl]oxy}-3-(2-{[2-(3-hydroxy-2-methoxyphenyl)pyrimidin-4-yl]methoxy}phenyl)propanoic Acid], for which the IC50 in assay [1] (Homo sapiens) was 2.61 nM; on Mcl-1 protein, 0.84 nM.

In the case of `COCCOCCOCCOCCOCCOCCOCCOCCOCCOCCOCCOCCOCCOCCOCCOCCn1cc(COCc2cc(NC(=O)[C@H](CCCNC(N)=O)NC(=O)[C@@H](NC(=O)CCOCCN3C(=O)C=CC3=O)C(C)C)ccc2C[N+]2(C)CCN(CCOc3ccc(-c4c(-c5ccc(F)cc5)sc5ncnc(O[C@H](Cc6ccccc6OCc6ccnc(-c7ccccc7OC)n6)C(=O)O)c45)c(C)c3Cl)CC2)nn1` [L34-P1], in the assay on NOMO-1 (setting [2]), the “NOMO-1 Amax” value is recorded as 66.95. The pIC50 was 8.53 in the assay on NOMO-1 (CD74 ADC with the named linker-payload, 5 days, read-out: NOMO-1 IC50); 8.20 with MONO-MAC-1; 9.13 in the assay with EOL-1 (CD74 ADC with the named linker-payload, 5 days, read-out: EOL-1 IC50). For the same molecule, the “MONO-MAC-1 Amax” value in the assay on MONO-MAC-1 came to 104.4. Also, the “EOL-1 Amax” value with EOL-1 (setting [2]) was determined as 70.92.

As to `COc1ccccc1-c1nccc(COc2ccccc2C[C@@H](Oc2ncnc3sc(-c4ccc(F)cc4)c(-c4ccc(OCCN5CC[N+](C)(Cc6ccc(NC(=O)[C@H](CCCNC(N)=O)NC(=O)[C@@H](NC(=O)CCOCCN7C(=O)C=CC7=O)C(C)C)cc6CN(C)C(=O)OC[C@H](NC(=O)CS(=O)(=O)O)C(=O)O)CC5)c(Cl)c4C)c23)C(=O)O)n1` [L77-P1], the values for the pIC50 in the assay on NOMO-1, in the assay with MONO-MAC-1 and with EOL-1 were 8.50, 9.01 and 9.42, respectively. The “NOMO-1 Amax” value with NOMO-1 (setting [2]) amounted to 48.53. In addition, in the assay with MONO-MAC-1, the “MONO-MAC-1 Amax” value was 108.2. Moreover, in the assay on EOL-1 (setting [2]), the “EOL-1 Amax” value amounted to 102.6.

As to “(2R)-2-{[(5Sa)-5-{3-chloro-2-methyl-4-[2-(4-methylpiperazin-1-yl)ethoxy]phenyl}-6-(4-fluorophenyl)thieno[2,3-d]pyrimidin-4-yl]oxy}-3-(2-{[2-(4-hydroxyphenyl)pyrimidin-4-yl]methoxy}phenyl)propanoic Acid [C5]”, the IC50 in assay [1] was found to be 4.08 nM; against Mcl-1 protein it was 4.05 nM.
